Read-outs that look alike come from different tables or passages of the source.
How the values were obtained:
[1] = system: J7-T3-1.6; experiment: cells; type: cell-based, mouse; conditions: for IC50: J7-T3-1.6, 72 h, mean ± SE, read-out: IC50 (drug concentration that inhibits cell division by 50%); for Fold resistance (ratio of IC50 J7-T3-1.6 to J774.2): after 72 h
Protocol: (§1) The drug-sensitive mouse macrophage-like cell line, J774.2, and its Taxol-resistant cell line, J7-T3-1.6, were maintained as previously described. […] Drug-sensitive and vinblastine-resistant human ovarian carcinoma cell lines, SKOV3 and SKVLB, were obtained from Dr. V. Ling, and were maintained as previously described. Both J7-T3-1.6 and SKVLB cells overexpress P-glycoprotein. SKVLB cells were grown in the presence of 1 μM vinblastine. The Taxol-resistant human non-small-cell lung carcinoma cell line, A549-T12, was derived from the drug-sensitive A549 cell line; both cell lines were maintained as previously described.
(§2) For the A549 cell lines, cells were seeded at a density of 1×10^4 cells/mL (A549) or 3×10^4 cells/mL (A549-T12), in triplicate, 6-well plates, and allowed to attach for 24 h. […] The SKOV3 and SKVLB cell lines were assayed in a similar manner. Cells were seeded in triplicate, at a density of 6×10^3 cells/mL (SKOV3) or 12×10^3 cells/mL (SKVLB), in 6-well plates, and incubated with a drug for 6 days. […] J774.2 and J7-T3-1.6 cells were plated at a density of 2×10^4 cells/well, in 96-well plates, and allowed to attach overnight. Serial dilutions of each drug were performed, and the cells were incubated for 72 h. The IC50 was determined using the CellTiter 96™ AQueous nonradioactive cell proliferation assay (Promega, Madison, Wis.), which correlates with the number of live cells. Different methods for determining IC50 values were used, depending on the most accurate method for each particular set of cell lines.

[2] = system: J774.2; experiment: cells; type: cell-based, mouse; conditions: J774.2, 72 h, mean ± SE; for IC50: read-out: IC50 (drug concentration that inhibits cell division by 50%)
Protocol: as §1, §2

[3] = system: A549-T12; experiment: cells; type: cell-based, human; conditions: for IC50: read-out: IC50 (drug concentration that inhibits cell division by 50%)
Protocol: as §1, §2

[4] = system: A549; experiment: cells; type: cell-based, human; conditions: for IC50: read-out: IC50 (drug concentration that inhibits cell division by 50%)
Protocol: as §1, §2

[5] = system: SKOV3; experiment: cells; type: cell-based, human; conditions: SKOV3, 6 days, mean ± SE; for IC50: read-out: IC50 (drug concentration that inhibits cell division by 50%)
Protocol: as §1, §2

[6] = system: SKVLB; experiment: cells; type: cell-based, human; conditions: for IC50: SKVLB, 6 days, mean ± SE, read-out: IC50 (drug concentration that inhibits cell division by 50%); for Fold resistance (ratio of IC50, SKVLB and SKOV3): after 6 days
Protocol: as §1, §2

[7] = system: A549-T12 cells; type: cell-based, human; conditions: 48 h; concentrations as in FIG. 4
Protocol: A549-T12 cells were grown on cover slips and treated with the different compounds for 48 h. Cells were then permeabilized, fixed, and incubated with an α-tubulin antibody, as described below.
A549-T12 cells, which were grown to subconfluency on glass cover slips in the absence of drug or in the presence of different drugs at varying concentrations (FIG. 4), were prepared for immunofluorescence microscopy as previously described, with the following modifications: (a) nonspecific binding was blocked using 10% normal goat serum in PBS for 30 min at 37° C.; (b) cells were incubated with a monoclonal antibody to α-tubulin (Sigma; 1:100 dilution; 5% normal goat serum in PBS), followed by a Cy3-conjugated anti-mouse IgG secondary antibody (Amersham, Arlington Heights, Ill.; 1:1000 dilution); and (c) slides were analyzed using the Zeiss Axioskop microscope (rhodamine filter) at 63× magnification.

[8] = system: A549-T12 cells; type: cell-based, human; conditions: for Cell-cycle profile: 48 h, 2 nM Taxol, discodermolide 2 or 6 nM, other drugs as in FIG. 5; for Reversal of the G2-M-phase block induced by Taxol removal: 48 h without Taxol, then 48 h with drug, discodermolide 0.001-24.0 nM, data not shown
Protocol: Cells were incubated with the different agents for 48 h, fixed, stained with propidium iodide, and analyzed by flow cytometry, as described below.
For the drug substitution experiments, A549-T12 cells were seeded at a density of 3×10^4 cells/mL in 75-cm^2 flasks, and treated with various drugs at the indicated concentrations (FIG. 5). After 48 h, both adherent and nonadherent cells were harvested, fixed in 70% ethanol for at least 20 min, permeabilized with 0.1% Triton X-100 in PBS for 3 min, and stained for 30 min at 37° C. with 10 μg/mL of propidium iodide (Sigma) in a PBS solution containing 1 μg/mL of RNase A (Boehringer Mannheim, Indianapolis, Ind.). Cell-cycle analysis was performed using the Becton Dickinson FACScan and the CellQuest program. […] The cells then were prepared as described above.

[9] = system: microtubules; experiment: In vitro microtubule polymerization assay; type: biochemical; conditions: in the absence of GTP
[10] = system: A549 cells; experiment: Methylene blue growth assay; type: cell-based, human; conditions: 8 to 11 days
Protocol: (§3) FIG. 2 illustrates that A549-T12 cells require Taxol for normal growth. A549 and A549-T12 cells were grown in the absence or presence of various concentrations of Taxol for 8 to 11 days. The cells were then stained with methylene blue, as described below.
(§4) Cells were seeded in 24-well plates at a density of 400 cells/well (A549) or 500 cells/well (A549-T12), and treated with different concentrations of Taxol. Following 8 to 11 days of growth, the medium was removed, and cells were stained with 0.5% methylene blue (Sigma) in 50% ethanol for 20 min, then rinsed with distilled water (FIG. 2).

[11] = system: A549-T12 cells; experiment: Methylene blue growth assay; type: cell-based, human; conditions: 8 to 11 days
Protocol: as §3, §4

[12] = Homo sapiens, A549-T12, 72 h, cells maintained in 2 nM Taxol, mean ± SE
[13] = Homo sapiens, A549, 72 h, mean ± SE
[14] = Homo sapiens, Ovarian carcinoma cell, 144 h
[15] = A549-T12, 72 h, cells maintained in 2 nM Taxol, mean ± SE

## CC(=O)O[C@H]1C(=O)[C@@]2(C)[C@H]([C@H](OC(=O)c3ccccc3)[C@]3(O)C[C@H](OC(=O)[C@H](O)[C@@H](NC(=O)c4ccccc4)c4ccccc4)C(C)=C1C3(C)C)[C@]1(OC(C)=O)CO[C@@H]1C[C@@H]2O [Taxol, paclitaxel]
[1]; Mus musculus
  IC50: 18000 nM
[1]
  Fold resistance (ratio of IC50 J7-T3-1.6 to J774.2): 268.7 fold
[2]; Mus musculus
  IC50: 67 ± 7 nM
[3]; [12]
  IC50: 18.7 ± 0.9 nM
[4]; [13]
  IC50: 2 ± 0.14 nM
[5]; Homo sapiens, SK-OV-3, 144 h
  IC50: 2 ± 0.1 nM
[5]
  IC50 (drug concentration that inhibits cell division by 50%): decreased but similar responses
[6]; [14]
  IC50: 13300 nM
[6]
  Fold resistance (ratio of IC50, SKVLB and SKOV3): 6,666.5 fold
[7]
  Microtubule cytoskeleton / ability to substitute for Taxol: normal microtubule cytoskeleton
[8]
  Cell-cycle profile: normal cell-cycle profile
  Reversal of the G2-M-phase block induced by Taxol removal: return of a normal cell-cycle profile
[9]
  Assembly of microtubules: enhanced the assembly of stable microtubules
[10]; 6 nM Taxol
  Cell growth: cytotoxic
[10]; subnanomolar concentrations of Taxol
  Cell growth: unaffected
[11]; 6 nM Taxol
  Cell growth: grew normally
[11]
  Taxol level required by the cell line for normal growth: 2 to 6 nM

## C/C(=C\c1csc(C)n1)[C@@H]1C[C@@H]2O[C@]2(C)CCC[C@H](C)[C@H](O)[C@@H](C)C(=O)C(C)(C)[C@@H](O)CC(=O)O1 [EpoB, epothilone B]
[1]
  IC50: 12 ± 4 nM
  Fold resistance (ratio of IC50 J7-T3-1.6 to J774.2): 30 fold
[1]; listed as epothilone B
  Fold resistance (ratio of IC50 J7-T3-1.6 to J774.2): low resistance
[2]
  IC50 (drug concentration that inhibits cell division by 50%): most sensitive
  IC50: 0.4 ± 0.1 nM
[3]; 72 h
  Fold resistance (ratio of IC50 A549-T12 to A549): 4.7 fold
[3]; 72 h, listed as epothilone B
  Fold resistance (ratio of IC50 A549-T12 to A549): cross-resistance
[3]; [15]
  IC50: 3.3 ± 0.72 nM
[4]; A549, 72 h, mean ± SE
  IC50 (drug concentration that inhibits cell division by 50%): more potent
  IC50: 0.7 ± 0.1 nM
[5]
  IC50 (drug concentration that inhibits cell division by 50%): highest sensitivity
  IC50: 0.5 ± 0.09 nM
[6]
  IC50: 9.5 ± 2.1 nM
  Fold resistance (ratio of IC50, SKVLB and SKOV3): 19.0 fold
[6]; listed as epothilone B
  Fold resistance (ratio of IC50, SKVLB and SKOV3): low-level cross-resistance
[7]
  Microtubule cytoskeleton / ability to substitute for Taxol: normal microtubule cytoskeleton
[8]
  Cell-cycle profile: normal cell-cycle profile
  Reversal of the G2-M-phase block induced by Taxol removal: return of a normal cell-cycle profile

## CC[C@]1(O)C[C@@H]2CN(CCc3c([nH]c4ccccc34)[C@@](C(=O)OC)(c3cc4c(cc3OC)N(C)[C@H]3[C@@](O)(C(=O)OC)[C@H](OC(C)=O)[C@]5(CC)C=CCN6CC[C@]43[C@@H]65)C2)C1 [VBL, vinblastine]
[1]; Mus musculus
  IC50: 767 ± 351 nM
[1]
  Fold resistance (ratio of IC50 J7-T3-1.6 to J774.2): 127.8 fold
[1]; listed as vinblastine
  Fold resistance (ratio of IC50 J7-T3-1.6 to J774.2): significant cross-resistance
[2]; Mus musculus
  IC50: 6 ± 2.7 nM
[3]; 72 h
  Fold resistance (ratio of IC50 A549-T12 to A549): 1.0 fold
[3]; 72 h, listed as vinblastine
  Fold resistance (ratio of IC50 A549-T12 to A549): no cross-resistance
[3]; [12]
  IC50: 1.8 ± 0.18 nM
[4]; [13]
  IC50: 1.8 nM
[5]; Homo sapiens, SK-OV-3, 144 h
  IC50: 1.1 ± 0.1 nM
[5]
  IC50 (drug concentration that inhibits cell division by 50%): highest sensitivity
[6]; [14]
  IC50: 1880 nM
[6]
  Fold resistance (ratio of IC50, SKVLB and SKOV3): 1,709.4 fold
[7]
  Microtubule cytoskeleton / ability to substitute for Taxol: Neither discodermolide nor vinblastine was able to substitute for Taxol
[8]
  Cell-cycle profile: mitotic block
  Reversal of the G2-M-phase block induced by Taxol removal: irreversible

## C/C(=C\c1csc(C)n1)[C@@H]1C[C@@H]2O[C@@H]2CCC[C@H](C)[C@H](O)[C@@H](C)C(=O)C(C)(C)[C@@H](O)CC(=O)O1 [EpoA, epothilone A]
[1]
  IC50: 170 ± 14 nM
  Fold resistance (ratio of IC50 J7-T3-1.6 to J774.2): 16 fold
[1]; listed as epothilone A
  Fold resistance (ratio of IC50 J7-T3-1.6 to J774.2): low resistance
[2]
  IC50: 10.6 ± 2 nM
[3]; 72 h
  Fold resistance (ratio of IC50 A549-T12 to A549): 5.3 fold
[3]; 72 h, listed as epothilone A
  Fold resistance (ratio of IC50 A549-T12 to A549): cross-resistance
[3]; [15]
  IC50: 34 ± 3.1 nM
[4]; A549, 72 h, mean ± SE
  IC50 (drug concentration that inhibits cell division by 50%): comparable activities
  IC50: 6.4 ± 2 nM
[5]
  IC50 (drug concentration that inhibits cell division by 50%): decreased but similar responses
  IC50: 10.3 ± 4.5 nM
[6]
  IC50: 190 ± 14 nM
  Fold resistance (ratio of IC50, SKVLB and SKOV3): 18.5 fold
[6]; listed as epothilone A
  Fold resistance (ratio of IC50, SKVLB and SKOV3): low-level cross-resistance
[7]
  Microtubule cytoskeleton / ability to substitute for Taxol: normal microtubule cytoskeleton
[8]
  Cell-cycle profile: normal cell-cycle profile
  Reversal of the G2-M-phase block induced by Taxol removal: return of a normal cell-cycle profile

## CO[C@]12C=C[C@](C)(O1)[C@@H](OC(=O)/C=C/c1cn(C)cn1)C[C@H]1C(C)=CC[C@H](C(C)C)[C@H]1/C=C\2CO[C@@H]1OC[C@@H](O)[C@@H](O)[C@@H]1OC(C)=O [Eleu, eleutherobin]
[1]; Mus musculus
  IC50: > 5000 nM
[1]
  Fold resistance (ratio of IC50 J7-T3-1.6 to J774.2): >12.7 fold
[2]
  IC50 (drug concentration that inhibits cell division by 50%): quite insensitive
[2]; Mus musculus
  IC50: 394 ± 5.8 nM
[3]; Homo sapiens, 72 h
  IC50: 69 ± 11.3 nM
[4]
  IC50 (drug concentration that inhibits cell division by 50%): comparable activities
[4]; Homo sapiens, A549, 72 h
  IC50: 14 ± 2.8 nM
[5]; Homo sapiens, SK-OV-3, 144 h
  IC50: 8.2 ± 3.8 nM
[5]
  IC50 (drug concentration that inhibits cell division by 50%): decreased but similar responses
[6]; [14]
  IC50: > 5000 nM
[6]
  Fold resistance (ratio of IC50, SKVLB and SKOV3): >609.8 fold
[6]; listed as eleutherobin
  Fold resistance (ratio of IC50, SKVLB and SKOV3): definite cross-resistance
[7]
  Microtubule cytoskeleton / ability to substitute for Taxol: normal microtubule cytoskeleton
[8]
  Cell-cycle profile: normal cell-cycle profile
  Reversal of the G2-M-phase block induced by Taxol removal: return of a normal cell-cycle profile
[9]
  Assembly of microtubules: enhanced the assembly of stable microtubules
